According to patent US20240002459A1, “Granulin Compositions and Uses Related Thereto” (Emory University, priority 2016, published 2024):
Values belong to the molecule of their own block, whether it stands above or below them. Where a SMILES comes first, the peptide text is derived from it. Where no end group is shown, it is not given here. [ ]: non-standard residue; d: D form. The star is where a group is joined. Nle = CCCC[C@H](N)C(=O)O; Cbz = O=C(OCc1ccccc1)*

Legend:
[1] = tested on: processing of PGRN into GRNs; assay: Protease inhibitor panel, PGRN/GRN levels by immunoblot; assay type: cell-based, human; settings: HAP1 WT cells, 24 hrs
Description: (§1) Asterisks (*) denote endogenous, intermediate PGRN cleavage products.
Processing of PGRN into GRNs likely involves one or more lysosomal proteases. To narrow down which class of proteases may be responsible for intracellular PGRN metabolism, HAP1 WT cells were treated with a panel of protease inhibitors and measured PGRN/GRN levels by immunoblot. […] One potential candidate lysosomal cysteine protease is cathepsin L, which was reported to cleave mouse PGRN in vitro.

[2] = tested on: processing of PGRN into GRNs; assay: Pan-lysosomal inhibitor treatment, PGRN/GRN levels by ELISA and immunoblot; assay type: cell-based, human; settings: HAP1 WT cells, 24 hrs, CQ 50 μM, BafA1 50 nM, ConA 50 nM; for secreted PGRN: conditioned media ELISA; for GRN levels / intracellular PGRN: immunoblot
Description: HAP1 WT cells were treated for 24 hrs with the pan-lysosome inhibitors chloroquine (CQ; 50 μM), bafilomycin A1 (BafA1; 50 nM), or concanamycin A (ConA; 50 nM) and conditioned media was analyzed for secreted PGRN by ELISA.
as §1
Because rapid processing of endocytosed PGRN into GRNs was observed, inhibiting lysosome function could impair GRN production. To determine the effect of pharmacologic lysosome inhibition on GRN levels, HAP1 WT cells were treated with the pan-lysosomal inhibitors chloroquine, bafilomycin A1, or concanamycin A1 for 24 hours and monitored PGRN/GRN levels by immunoblot. These compounds act as lysosome alkalizing agents or inhibitors of the vacuolar-type H+-ATPase (V-ATPase), which is needed for proper lysosome acidification and function. Further, these compounds increase intracellular and secreted PGRN.

[3] = tested on: processing of PGRN into GRNs; assay: Cathepsin L inhibitor II treatment, PGRN/GRN levels by immunoblot; assay type: cell-based, human; settings: HAP1 WT cells, increasing concentrations, 40 hrs
Text: as §1

[4] = at 25° C.; cited from earlier work
[5] = tested on: Grn KO MEF cells; assay: Rescue of cathepsin-D (CTSD) phenotype in Grn KO MEFs by exogenous protein; assay type: cell-based, mouse; settings: PGRN 10 μg/mL or GRN-2 proteins 25 μg/mL, 120 hrs, immunoblot
[6] = tested on: PGRN KO mouse embryonic fibroblasts (MEFs); assay: Uptake of recombinant PGRN and generation of GRNs in PGRN KO MEFs; assay type: cell-based; settings: 5 or 10 μg/mL, immunoblot
Description: PGRN KO MEF cells were treated with recombinant human PGRN (5 or 10 μg/mL) or recombinant mouse PGRN (5 μg/mL) in the media for 24 hrs and lysates were analyzed for PGRN (R&D AF2420) and GRN (Sigma) by immunoblot.
Because this study focused on screening and validating human specific PGRN antibodies, antibodies to detect endogenous mouse GRNs have not been identifies. Nevertheless, to determine if mouse cells are able to process human PGRN into mature GRNs, primary PGRN KO mouse embryonic fibroblasts (MEFs) were treated with recombinant human or mouse PGRN for […]. PGRN/GRN levels were measured in the lysates by immunoblot. […] Next, experiments were performed to determine if human PGRN would be processed into GRNs in mouse brain. Somatic brain transgenesis (SBT) were performed by injecting rAAV2/1 encoding eGFP or human N-TAP PGRN into the cerebral ventricles of newborn (PO) PGRN KO mice. The SBT paradigm leads to transgene expression that is almost exclusively neuronal as assessed by predominant co-localization between eGFP or PGRN (V5) and the neuronal marker NeuN at 3 months of age.

[7] = target: C-TAP PGRN (UniProt P28799)
[8] = target: cathepsin L (Homo sapiens, UniProt P07711); assay: In vitro cleavage of PGRN by recombinant cathepsin L; assay type: biochemical
[9] = tested on: HAP1 PGRN KO cells; assay: Uptake and processing of C-TAP or N-TAP PGRN into GRNs (immunoblot); assay type: cell-based, human; settings: 5 μg/mL, 24 hrs, compared to N-TAP PGRN
Description: HAP1 PGRN KO cells were treated with C-TAP PGRN or N-TAP PGRN (5 μg/mL) for 24 hrs and […] lysates were analyzed for PGRN and GRN by immunoblot.
PGRN levels have been linked to expression of several genes including SORT1, encoding the membrane receptor sortilin, and TMEM106B, encoding the transmembrane protein 106B (TMEM106B). Thus, altered expression of these proteins could affect the production of intracellular GRNs as well. To address this, experiments were performed to determine if expression of sortilin, which facilitates endocytosis and trafficking of PGRN to the lysosome, influences GRN levels. PGRN KO cells were treated with PGRN tagged at either the C-terminus (C-TAP), which disrupts sortilin binding or the N-terminus (N-TAP), which preserves sortilin binding, and measured intracellular PGRN and GRN by immunoblot. […] Next, HAP1 SORT1 KO cells were generated using CRISPR/Cas9 technology. […] Thus, disruption of the SORT1/PGRN axis alters intracellular PGRN trafficking and leads to decreased GRN production.

Sequence of cathepsin L (P07711 114-333, species assumed): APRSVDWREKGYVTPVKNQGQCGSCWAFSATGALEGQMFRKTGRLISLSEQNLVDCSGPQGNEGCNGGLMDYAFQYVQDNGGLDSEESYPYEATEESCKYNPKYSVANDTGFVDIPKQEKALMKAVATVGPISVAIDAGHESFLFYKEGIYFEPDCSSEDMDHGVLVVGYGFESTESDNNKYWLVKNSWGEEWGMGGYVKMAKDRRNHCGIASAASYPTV

Molecule: CCCC[C@@H](C=O)NC(=O)[C@H](CC(C)C)NC(=O)[C@H](CC(C)C)NC(C)=O [ALLN] (Ac-Leu-Leu-[Nle]-aldehyde)
- GRN levels compared to vehicle treated control [1]: reduced GRN levels

Molecule: CC(NC(=O)[C@H](Cc1ccccc1)NC(=O)OCc1ccccc1)C(=O)CF (stereo partly drawn) [Z-FA-fmk]
- GRN levels compared to vehicle treated control [1]: reduced GRN levels

Molecule: CO/C1=C\C(C)=C\[C@@H](C)[C@@H](O)[C@@H](C)C/C(C)=C/C=C/[C@H](OC)[C@@H]([C@@H](C)[C@@H](O)[C@H](C)[C@@]2(O)C[C@@H](O)[C@H](C)[C@@H](C(C)C)O2)OC1=O [bafilomycin A1]
- secreted PGRN [2]: significantly increased
- GRN levels [2]: significantly decreased
- intracellular PGRN [2]: significantly increased

Molecule: O=C[C@H](Cc1ccc(O)cc1)NC(=O)[C@H](Cc1ccccc1)NC(=O)OCc1ccccc1 [cathepsin L inhibitor II, Z-FY-CHO] (Cbz-Phe-Tyr-aldehyde)
- endogenous PGRN [3]: modestly increased
- production of GRN [3]: significantly decreasing

Molecule: CCN(CC)CCCC(C)Nc1ccnc2cc(Cl)ccc12 (stereo not drawn) [chloroquine]
- secreted PGRN [2]: significantly increased
- GRN levels [2]: significantly decreased
- intracellular PGRN [2]: significantly increased

Molecule: C/C=C/[C@H]1O[C@@](O)([C@@H](C)[C@H](O)[C@H](C)[C@H]2OC(=O)/C(OC)=C/C(C)=C/[C@@H](C)[C@@H](O)[C@@H](CC)[C@@H](O)[C@H](C)C/C(C)=C/C=C/[C@@H]2OC)C[C@@H](O[C@H]2C[C@@H](O)[C@H](OC(N)=O)[C@@H](C)O2)[C@@H]1C [concanamycin A1, concanamycin A]
- secreted PGRN [2]: significantly increased
- GRN levels [2]: significantly decreased
- intracellular PGRN [2]: significantly increased

Molecule: CC(=O)N[C@@H](CC(C)C)C(=O)N[C@@H](CC(C)C)C(=O)N[C@H](C=O)CCCNC(=N)N [leupeptin]
- GRN levels compared to vehicle treated control [1]: reduced GRN levels

Molecule: CCCCCCCC [octane]
- percent solubility in water by weight [4]: 0.63×10^−4 % w/w

Molecule: GRN-2: recombinant human granulin-2 protein, SEQ ID NO: 21, with twin Strep-tag (AIQCPDSQFECPDFSTCCVMVDGSWGCCPMPQASCCEDRVHCCPHGAFCDLVHTRCIT; cysteine pairing not given here; also: twin Strep-tag (position not given here))
- CTSD phenotype (total mature CTSD levels) [5]: rescues the CTSD phenotype

Molecule: N-TAP PGRN: full-length human PGRN with twin Strep tag and V5 epitope after the signal sequence; preserves sortilin binding
- endocytosis of PGRN and generation of mature human GRNs [6]: equally well

Molecule: recombinant cathepsin L
- in vitro cleavage of PGRN (immunoblot) [7]: Incubation of cathepsin L and recombinant human PGRN lead to the time-dependent decrease of full-length PGRN and a corresponding increase of GRN protein

- full-length PGRN on incubation with cathepsin L ([8]; with corresponding increase of GRN protein): time-dependent decrease
Molecule: recombinant human PGRN: recombinant full-length human progranulin protein (C-TAP PGRN in the cathepsin L cleavage)
- endocytosis of PGRN and generation of mature human GRNs [6]: efficiently endocytosed
- GRNs generated by in vitro cleavage with cathepsin L ([8]; 2 hrs, immunoblot): generated multiple, mature GRNs including GRN-2, -3, and -4
- CTSD phenotype (total mature CTSD levels) [5]: can be rescued

B1: C-TAP PGRN: full-length human PGRN with C-terminal twin-Strep tag followed by FLAG epitope; disrupts sortilin binding (protein)
chain: TRCPDGQFCPVACCLDPGGASYSCCRPLLDKWPTTLSRHLGGPCQVDAHCSAGHSCIFTVSGTSSCCPFPEAVACGDGHHCCPRGFHCSADGRSCFQRSGNNSVGAIQCPDSQFECPDFSTCCVMVDGSWGCCPMPQASCCEDRVHCCPHGAFCDLVHTRCITPTGTHPLAKKLPAQRTNRAVALSSSVMCPDARSRCPDGSTCCELPSGKYGCCPMPNATCCSDHLHCCPQDTVCDLIQSKCLSKENATTDLLTKLPAHTVGDVKCDMEVSCPDGYTCCRLQSGAWGCCPFTQAVCCEDHIHCCPAGFTCDTQKGTCEQGPHQVPWMEKAPAHLSLPDPQALKRDVPCDNVSSCPSSDTCCQLTSGEWGCCPIPEAVCCSDHQHCCPQGYTCVAEGQCQRGSEIVAGLEKMPARRASLSHPRDIGCDQHTSCPVGQTCCPSLGGSWACCQLPHAVCCEDRQHCCPAGYTCNVKARSCEKEVVSAQPATFLARSPHVGVKDVECGEGHFCHDNQTCCRDNRQGWACCPYRQGVCCADRRHCCPAGFRCAARGTKCLRREAPRWDAPLRDPALRQLL
modifications: left off: small tags and cut ends
- endocytosis and processing into GRNs [9]: not efficiently endocytosed and processed into GRNs
- endocytosis of PGRN and generation of mature human GRNs [6]: equally well
